# Results: PubChem BioAssay AID220 (DTP/NCI, 2004)
# Values joined by “and” are separate entries in the source; they are usually repeats but may differ in a detail not shown here. Equal values may be shown once. Results filed as inconclusive are left out.
# System: CD8F1 mice, subcutaneous mammary adenocarcinoma, T/C%
# Test: NCI In Vivo Anticancer Drug Screen. Data for tumor model Mammary Adenocarcinoma CD8F1 (subcutaneous) in CD8F1
# Details: higher = larger tumour
# Method: The antitumor activity of compounds was measured in mice bearing transplantable tumors. Survival or tumor size were measured and the results are expressed as the measurement made in the treated group (T) divided by the measurement made in the vehicle treated control group (C). The tumor model used in this assay is Mammary Adenocarcinoma CD8F1 (subcutaneous) in CD8F1
# [1] = endpoint: median tumor weight change, dose: 31.25 mg/kg/injection, schedule: Q01DX001 (ip), vehicle: saline with Tween-80
# [2] = endpoint: median tumor weight change, dose: 62.5 mg/kg/injection, schedule: Q01DX001 (ip), vehicle: saline with Tween-80
structure (smiles),measurement,setting,value
O=c1n(CC2CO2)c(=O)n(CC2CO2)c(=O)n1CC1CO1 (stereo not given),T/C,"endpoint: median tumor weight (est.), dose: 12.5 mg/kg/injection, schedule: Q07DX004 (ip), vehicle: saline with Tween-80",64 % of control
same,T/C,"endpoint: median tumor weight (est.), dose: 12.5 mg/kg/injection, schedule: Q07DX005 (ip), vehicle: saline with Tween-80",17 % of control
same,T/C,"endpoint: median tumor weight (est.), dose: 12.5 mg/kg/injection, schedule: Q07DX005 (ip), vehicle: suspension in saline",69 % of control and 55 % of control
same,T/C,"endpoint: median tumor weight (est.), dose: 25.0 mg/kg/injection, schedule: Q07DX004 (ip), vehicle: saline with Tween-80",79 % of control
same,T/C,"endpoint: median tumor weight (est.), dose: 25.0 mg/kg/injection, schedule: Q07DX005 (ip), vehicle: saline with Tween-80",4 % of control
same,T/C,"endpoint: median tumor weight (est.), dose: 50.0 mg/kg/injection, schedule: Q07DX004 (ip), vehicle: saline with Tween-80",42 % of control
same,T/C,"endpoint: median tumor weight (est.), dose: 50.0 mg/kg/injection, schedule: Q07DX005 (ip), vehicle: suspension in saline",12 % of control and 35 % of control
CC(=O)C1(O)Cc2c(O)c3c(c(O)c2C(OC2CC(N)C(O)C(C)O2)C1)C(=O)c1ccccc1C3=O (stereo not given),T/C,"endpoint: median tumor weight (est.), dose: 0.1 mg/kg/injection, schedule: Q07DX005 (ip), vehicle: saline",81 % of control
same,T/C,"endpoint: median tumor weight (est.), dose: 0.2 mg/kg/injection, schedule: Q07DX005 (ip), vehicle: saline",55 % of control
same,T/C,"endpoint: median tumor weight (est.), dose: 0.4 mg/kg/injection, schedule: Q07DX005 (ip), vehicle: saline",48 % of control
O=C(O)CC(=O)O.[NH-]C1CCCCC1[NH-].[Pt+2] (stereo not given),T/C,"endpoint: median tumor weight (est.), dose: 20.0 mg/kg/injection, schedule: Q07DX005 (ip), vehicle: dextrose",14 % of control
same,T/C,"endpoint: median tumor weight (est.), dose: 40.0 mg/kg/injection, schedule: Q07DX005 (ip), vehicle: dextrose",38 % of control
same,T/C,"endpoint: median tumor weight (est.), dose: 80.0 mg/kg/injection, schedule: Q07DX005 (ip), vehicle: dextrose",67 % of control
Nc1nnc[se]1,T/C,"endpoint: median tumor weight change, dose: 15.6 mg/kg/injection, schedule: Q01DX001 (ip), vehicle: saline with Tween-80",80 % of control
same,T/C,[1],123 % of control
same,T/C,[2],84 % of control
same,T/C,"endpoint: median tumor weight change, dose: 125.0 mg/kg/injection, schedule: Q01DX001 (ip), vehicle: saline with Tween-80",94 % of control
same,T/C,"endpoint: median tumor weight change, dose: 250.0 mg/kg/injection, schedule: Q01DX001 (ip), vehicle: saline with Tween-80",50 % of control
same,T/C,"endpoint: median tumor weight change, dose: 500.0 mg/kg/injection, schedule: Q01DX001 (ip), vehicle: saline with Tween-80",38 % of control
O=C1c2cccc3cc([N+](=O)[O-])cc(c23)C(=O)N1CCN1CCCC1,T/C,"endpoint: median tumor weight change, dose: 7.0 mg/kg/injection, schedule: Q01DX001 (ip), vehicle: saline with Tween-80",117 % of control
same,T/C,"endpoint: median tumor weight change, dose: 14.06 mg/kg/injection, schedule: Q01DX001 (ip), vehicle: saline with Tween-80",69 % of control
same,T/C,"endpoint: median tumor weight change, dose: 28.12 mg/kg/injection, schedule: Q01DX001 (ip), vehicle: saline with Tween-80",118 % of control
same,T/C,[1],63 % of control
same,T/C,"endpoint: median tumor weight change, dose: 56.25 mg/kg/injection, schedule: Q01DX001 (ip), vehicle: saline with Tween-80",81 % of control
same,T/C,[2],20 % of control
same,T/C,"endpoint: median tumor weight change, dose: 112.5 mg/kg/injection, schedule: Q01DX001 (ip), vehicle: saline with Tween-80",18 % of control
C1CC[N-]CC1.C1CC[N-]CC1.C1CC[N-]CC1.[Cl][Rh]([Cl])[Cl],T/C,"endpoint: median tumor weight (est.), dose: 6.25 mg/kg/injection, schedule: Q07DX005 (ip), vehicle: saline",112 % of control
same,T/C,"endpoint: median tumor weight (est.), dose: 8.0 mg/kg/injection, schedule: Q07DX005 (ip), vehicle: saline",118 % of control
same,T/C,"endpoint: median tumor weight (est.), dose: 12.5 mg/kg/injection, schedule: Q07DX005 (ip), vehicle: saline",100 % of control
same,T/C,"endpoint: median tumor weight (est.), dose: 25.0 mg/kg/injection, schedule: Q07DX005 (ip), vehicle: saline",73 % of control
same,T/C,"endpoint: median tumor weight (est.), dose: 32.0 mg/kg/injection, schedule: Q07DX005 (ip), vehicle: saline",61 % of control
same,T/C,"endpoint: median tumor weight (est.), dose: 50.0 mg/kg/injection, schedule: Q07DX005 (ip), vehicle: saline",84 % of control
same,T/C,"endpoint: median tumor weight (est.), dose: 64.0 mg/kg/injection, schedule: Q07DX005 (ip), vehicle: saline",47 % of control
same,T/C,"endpoint: median tumor weight (est.), dose: 100.0 mg/kg/injection, schedule: Q07DX005 (ip), vehicle: saline",45 % of control
CN(N=O)C(=O)N[C@@H](C=O)[C@@H](O)[C@H](O)[C@H](O)CO,T/C,"endpoint: median tumor weight (est.), dose: 16.0 mg/kg/injection, schedule: Q07DX005 (ip), vehicle: Klucel (hydroxypropylcellulose) (HPC)",90 % of control
same,T/C,"endpoint: median tumor weight (est.), dose: 16.0 mg/kg/injection, schedule: Q07DX005 (ip), vehicle: other",101 % of control and 109 % of control
same,T/C,"endpoint: median tumor weight (est.), dose: 32.0 mg/kg/injection, schedule: Q07DX005 (ip), vehicle: Klucel (hydroxypropylcellulose) (HPC)",98 % of control
same,T/C,"endpoint: median tumor weight (est.), dose: 50.0 mg/kg/injection, schedule: Q07DX005 (ip), vehicle: citric acid",98 % of control
same,T/C,"endpoint: median tumor weight (est.), dose: 64.0 mg/kg/injection, schedule: Q07DX005 (ip), vehicle: Klucel (hydroxypropylcellulose) (HPC)",95 % of control
same,T/C,"endpoint: median tumor weight (est.), dose: 64.0 mg/kg/injection, schedule: Q07DX005 (ip), vehicle: other",115 % of control
same,T/C,"endpoint: median tumor weight (est.), dose: 100.0 mg/kg/injection, schedule: Q07DX005 (ip), vehicle: citric acid",76 % of control
same,T/C,"endpoint: median tumor weight (est.), dose: 128.0 mg/kg/injection, schedule: Q07DX005 (ip), vehicle: other",87 % of control
same,T/C,"endpoint: median tumor weight (est.), dose: 200.0 mg/kg/injection, schedule: Q07DX005 (ip), vehicle: citric acid",84 % of control
same,T/C,"endpoint: median tumor weight (est.), dose: 256.0 mg/kg/injection, schedule: Q07DX005 (ip), vehicle: other",39 % of control
same,T/C,"endpoint: median tumor weight (est.), dose: 400.0 mg/kg/injection, schedule: Q07DX005 (ip), vehicle: citric acid",48 % of control
N#CC(OC1OC(COC2OC(CO)C(O)C(O)C2O)C(O)C(O)C1O)c1ccccc1 (stereo not given),T/C,"endpoint: median tumor weight (est.), dose: 50.0 mg/kg/injection, schedule: Q07DX005 (ip), vehicle: water",71 % of control
same,T/C,"endpoint: median tumor weight (est.), dose: 100.0 mg/kg/injection, schedule: Q07DX005 (ip), vehicle: water",88 % of control
same,T/C,"endpoint: median tumor weight (est.), dose: 200.0 mg/kg/injection, schedule: Q07DX005 (ip), vehicle: water",112 % of control
same,T/C,"endpoint: median tumor weight (est.), dose: 400.0 mg/kg/injection, schedule: Q07DX005 (ip), vehicle: water",114 % of control
same,T/C,"endpoint: median tumor weight (est.), dose: 800.0 mg/kg/injection, schedule: Q07DX005 (ip), vehicle: water",82 % of control
